The numbers were not newly measured in patent publication US8329142B2, “Compounds, compositions and methods for medical imaging of Parkinson's disease” (priority 2003, dated 2012), which cites them from elsewhere.

Data set [1] addresses T1, Aβ(1-40) (Homo sapiens, UniProt P05067).
In a further data set the target is Aβ(1-28) (Homo sapiens, UniProt P05067). The conditions noted are these: computer-based molecular modeling.
Data set [2] concerns the target T1, Aβ(1-40). The conditions noted are these: in vitro.
The conditions of data set [3]: intra-venous (IV) and oral administration.

T1 sequence (P05067 672-711 limits assumed): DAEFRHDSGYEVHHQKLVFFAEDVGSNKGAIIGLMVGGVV
Sequence of Aβ(1-28) (P05067 672-699): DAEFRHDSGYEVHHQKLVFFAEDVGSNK

Regarding `[12CH3][14N+]([12CH3])([12CH3])CC[16O][31P](=[16O])([16OH])[16O]CC([16OH])C[16OH]` (stereo not shown) [GPC, glycerophosphocholine], the “reduction of α-helical content of Aβ(1-40)” value on Aβ(1-40) [1] was 15%. Further, on Aβ(1-28), the “binding to Aβ(1-28) peptide site (pocket Lys28, Asp23, Lys16)” value is on record as “bind specifically”. The “enhancement of Aβ(1-40) aggregation” value at Aβ(1-40) [2] is recorded as “over 400%”. In addition, the brain penetration entry in data set [3] is listed as “enters the brain”.
